Holding throughout (test): AK assay 384-well format, Prestwick library screening
One experiment has as its system E. faecium. The format is cell-based, Enterococcus faecium. As to conditions: 50 μM final drug concentration; for fold induction at 50 µM: Enterococcus faecium, 3 h.
The subject of experiment [1] is S. aureus strain USA300-0114. The format is cell-based, Staphylococcus aureus. As to conditions: 50 μM final drug concentration; for fold induction at 50 µM: Staphylococcus aureus, USA300, 3 h.
A further experiment has as its system K. pneumoniae. The format is cell-based, Klebsiella pneumoniae. As to conditions: 50 μM final drug concentration; for fold induction at 50 µM: Klebsiella pneumoniae, 3 h.
The subject of experiment [2] is A. baumannii strain 98-37-09. It is filed as cell-based, Acinetobacter baumannii. As to conditions: 50 μM final drug concentration; for fold induction at 50 µM: Acinetobacter baumannii, 983709, 3 h.
Another experiment relates to P. aeruginosa. It is filed as cell-based, Pseudomonas aeruginosa. As to conditions: 50 μM final drug concentration; for fold induction at 50 µM: Pseudomonas aeruginosa, 3 h.
For the next experiment, the system named is E. cloacae. It is filed as cell-based, Enterobacter cloacae. As to conditions: 50 μM final drug concentration; for fold induction at 50 µM: Enterobacter cloacae, 3 h.
Another experiment has as its system E. coli. It is filed as cell-based, Escherichia coli. As to conditions: 50 μM final drug concentration; for fold induction at 50 µM: Escherichia coli, 3 h.
Where [3] appears, read: planktonic, cutoff for positive-scoring molecules 3-fold increase, read-out: AK-based Prestwick Library Screening Results, E. faecium (fold increase in extracellular AK activity).
Setting [4] is: planktonic, cutoff for positive-scoring molecules 3-fold increase, read-out: AK-based Prestwick Library Screening Results, S. aureus (fold increase in extracellular AK activity).
Setting [5] is: planktonic, cutoff for positive-scoring molecules 3-fold increase, read-out: AK-based Prestwick Library Screening Results, K. pneumoniae (fold increase in extracellular AK activity).
The mark [6] stands for this setting: planktonic, cutoff for positive-scoring molecules 3-fold increase, read-out: AK-based Prestwick Library Screening Results, A. baumannii (fold increase in extracellular AK activity).
Setting [7] is: planktonic, cutoff for positive-scoring molecules 3-fold increase, read-out: AK-based Prestwick Library Screening Results, P. aeruginosa (fold increase in extracellular AK activity).
The mark [8] stands for this setting: planktonic, cutoff for positive-scoring molecules 3-fold increase, read-out: AK-based Prestwick Library Screening Results, E. cloacae (fold increase in extracellular AK activity).
The mark [9] stands for this setting: planktonic, cutoff for positive-scoring molecules 3-fold increase, read-out: AK-based Prestwick Library Screening Results, E. coli (fold increase in extracellular AK activity).
Setting [10] is: cutoff for positive-scoring molecules 3-fold increase.
Setting [11] is: planktonic E. faecium, cutoff for positive-scoring molecules 3-fold increase, read-out: AK-based Prestwick Library Screening Results, E. faecium (increase in extracellular AK activity).
[12] abbreviates: planktonic S. aureus, cutoff for positive-scoring molecules 3-fold increase, read-out: AK-based Prestwick Library Screening Results, S. aureus (increase in extracellular AK activity).
[13] abbreviates: planktonic K. pneumoniae, cutoff for positive-scoring molecules 3-fold increase, read-out: AK-based Prestwick Library Screening Results, K. pneumoniae (increase in extracellular AK activity).
[14] abbreviates: planktonic A. baumannii, cutoff for positive-scoring molecules 3-fold increase, read-out: AK-based Prestwick Library Screening Results, A. baumannii (increase in extracellular AK activity).
The mark [15] stands for this setting: planktonic P. aeruginosa, cutoff for positive-scoring molecules 3-fold increase, read-out: AK-based Prestwick Library Screening Results, P. aeruginosa (increase in extracellular AK activity).
The mark [16] stands for this setting: planktonic E. cloacae, cutoff for positive-scoring molecules 3-fold increase, read-out: AK-based Prestwick Library Screening Results, E. cloacae (increase in extracellular AK activity).
Setting [17] is: planktonic E. coli, cutoff for positive-scoring molecules 3-fold increase, read-out: AK-based Prestwick Library Screening Results, E. coli (increase in extracellular AK activity).

Where a name gives a salt, the structure may show the parent alone. Read-outs that look alike come from different tables or passages of the source.

With `CCCCNc1ccc(C(=O)OCCOCCOCCOCCOCCOCCOCCOCCOCCOC)cc1` [Benzonatate], the fold induction at 50 µM in the experiment with E. faecium (384-well format, cutoff for positive-scoring molecules 3-fold increase, read-out: AK-based Prestwick Library Screening Results, E. faecium (increase in extracellular AK activity)) amounted to 0.8; in experiment [1] (384-well format, cutoff for positive-scoring molecules 3-fold increase, read-out: AK-based Prestwick Library Screening Results, S. aureus (increase in extracellular AK activity)), 0.7; in the experiment with K. pneumoniae (384-well format, cutoff for positive-scoring molecules 3-fold increase, read-out: AK-based Prestwick Library Screening Results, K. pneumoniae (increase in extracellular AK activity)), 0.6; in experiment [2] (384-well format, cutoff for positive-scoring molecules 3-fold increase, read-out: AK-based Prestwick Library Screening Results, A. baumannii (increase in extracellular AK activity)), 0.7; in the experiment on P. aeruginosa (384-well format, cutoff for positive-scoring molecules 3-fold increase, read-out: AK-based Prestwick Library Screening Results, P. aeruginosa (increase in extracellular AK activity)) it was 0.6; with E. cloacae (384-well format, cutoff for positive-scoring molecules 3-fold increase, read-out: AK-based Prestwick Library Screening Results, E. cloacae (increase in extracellular AK activity)), 0.7. In addition, the fold induction at 50 µM in the experiment with E. coli (384-well format, cutoff for positive-scoring molecules 3-fold increase, read-out: AK-based Prestwick Library Screening Results, E. coli (increase in extracellular AK activity)) came out at 0.7.

Regarding `NS(=O)(=O)c1cc2c(cc1Cl)N=C(CSCc1ccccc1)NS2(=O)=O` [Benzthiazide], the fold induction at 50 µM is 1.4 in the experiment with E. faecium (setting [3]); 0.8 in experiment [1] (setting [4]); 0.8 in the experiment on K. pneumoniae (setting [5]); 0.9 in experiment [2] (setting [6]); 0.9 in the experiment on P. aeruginosa (setting [7]); 1.1 in the experiment with E. cloacae (setting [8]). Moreover, in the experiment on E. coli (setting [9]), the fold induction at 50 µM was determined as 0.9.

Turning to `CN(C)CCCOc1nn(Cc2ccccc2)c2ccccc12` [Benzydamine hydrochloride], the fold induction at 50 µM stood at 1.1 in the experiment on E. faecium (planktonic E. faecium, 384-well, cutoff for positive-scoring molecules 3-fold increase, read-out: AK-based Prestwick Library Screening Results: E. faecium (increase in extracellular AK activity)); 1.1 in experiment [1] (planktonic S. aureus, 384-well, cutoff for positive-scoring molecules 3-fold increase, read-out: AK-based Prestwick Library Screening Results: S. aureus (increase in extracellular AK activity)); 1 in the experiment on K. pneumoniae (planktonic K. pneumoniae, 384-well, cutoff for positive-scoring molecules 3-fold increase, read-out: AK-based Prestwick Library Screening Results: K. pneumoniae (increase in extracellular AK activity)); 1 in experiment [2] (planktonic A. baumannii, 384-well, cutoff for positive-scoring molecules 3-fold increase, read-out: AK-based Prestwick Library Screening Results: A. baumannii (increase in extracellular AK activity)); 1.2 with P. aeruginosa (planktonic P. aeruginosa, 384-well, cutoff for positive-scoring molecules 3-fold increase, read-out: AK-based Prestwick Library Screening Results: P. aeruginosa (increase in extracellular AK activity)); 1.2 in the experiment with E. cloacae (planktonic E. cloacae, 384-well, cutoff for positive-scoring molecules 3-fold increase, read-out: AK-based Prestwick Library Screening Results: E. cloacae (increase in extracellular AK activity)). Also, the fold induction at 50 µM in the experiment on E. coli (planktonic E. coli, 384-well, cutoff for positive-scoring molecules 3-fold increase, read-out: AK-based Prestwick Library Screening Results: E. coli (increase in extracellular AK activity)) worked out at 1.3.

For the compound `CC1(C)S[C@@H]2[C@H](NC(=O)Cc3ccccc3)C(=O)N2[C@H]1C(=O)O` [Benzylpenicillin sodium], the fold induction at 50 µM turned out to be 1.7 in the experiment on E. faecium (planktonic E. faecium, positive cutoff 3-fold increase, read-out: AK-based Prestwick library screening result, E. faecium (fold increase in extracellular AK activity)); 0.8 in experiment [1] (planktonic S. aureus, positive cutoff 3-fold increase, read-out: AK-based Prestwick library screening result, S. aureus (fold increase in extracellular AK activity)); 0.6 with K. pneumoniae (planktonic K. pneumoniae, positive cutoff 3-fold increase, read-out: AK-based Prestwick library screening result, K. pneumoniae (fold increase in extracellular AK activity)); 2.9 in experiment [2] (planktonic A. baumannii, positive cutoff 3-fold increase, read-out: AK-based Prestwick library screening result, A. baumannii (fold increase in extracellular AK activity)); 0.7 in the experiment on P. aeruginosa (planktonic P. aeruginosa, positive cutoff 3-fold increase, read-out: AK-based Prestwick library screening result, P. aeruginosa (fold increase in extracellular AK activity)); 1.2 in the experiment on E. cloacae (planktonic E. cloacae, positive cutoff 3-fold increase, read-out: AK-based Prestwick library screening result, E. cloacae (fold increase in extracellular AK activity)). Besides, in the experiment with E. coli (planktonic E. coli, positive cutoff 3-fold increase, read-out: AK-based Prestwick library screening result, E. coli (fold increase in extracellular AK activity)), the fold induction at 50 µM worked out at 11.3.

Turning to `C[N+](C)(CCOc1ccccc1)Cc1ccccc1.O=C([O-])c1cc2ccccc2cc1O` [Bephenium hydroxynaphthoate], the “AK-based Prestwick Library Screening Results, E. faecium (fold increase in extracellular AK activity)” value with E. faecium (setting [10]) was 1.0. Moreover, the “AK-based Prestwick Library Screening Results, S. aureus (fold increase in extracellular AK activity)” value in experiment [1] (setting [10]) worked out at 1.2. The “AK-based Prestwick Library Screening Results, K. pneumoniae (fold increase in extracellular AK activity)” value in the experiment with K. pneumoniae (setting [10]) came out at 1.0. The “AK-based Prestwick Library Screening Results, A. baumannii (fold increase in extracellular AK activity)” value in experiment [2] (setting [10]) worked out at 0.9. In addition, the “AK-based Prestwick Library Screening Results, P. aeruginosa (fold increase in extracellular AK activity)” value in the experiment with P. aeruginosa (setting [10]) is listed as 1.0. Besides, in the experiment with E. cloacae (setting [10]), the “AK-based Prestwick Library Screening Results, E. cloacae (fold increase in extracellular AK activity)” value was 2.0. Further, in the experiment with E. coli (setting [10]), the “AK-based Prestwick Library Screening Results, E. coli (fold increase in extracellular AK activity)” value is recorded as 1.2.

Consider `CC(C)COCC(CN(Cc1ccccc1)c1ccccc1)N1CCCC1` (stereo not drawn) [Bepridil hydrochloride], for which the fold induction at 50 µM turned out to be 1.1 in the experiment on E. faecium (setting [11]); 1.6 in experiment [1] (setting [12]); 1 with K. pneumoniae (setting [13]); 1.5 in experiment [2] (setting [14]); 1.2 in the experiment with P. aeruginosa (setting [15]); 1.4 in the experiment on E. cloacae (setting [16]). Also, the fold induction at 50 µM in the experiment on E. coli (setting [17]) stood at 1.3.

For the compound `COc1ccc2cc3[n+](cc2c1OC)CCc1cc2c(cc1-3)OCO2` [Berberine chloride], the fold induction at 50 µM with E. faecium (setting [11]) was 1; in experiment [1] (setting [12]), 0.7; with K. pneumoniae (setting [13]), 0.7; in experiment [2] (setting [14]), 0.9; in the experiment with P. aeruginosa (setting [15]) it was 0.9; in the experiment on E. cloacae (setting [16]), 1.1. For the same compound, the fold induction at 50 µM with E. coli (setting [17]) stood at 1.

In the case of `COc1c(O)cc2c(c1O)[C@@H]1O[C@H](CO)[C@@H](O)[C@H](O)[C@H]1OC2=O` [Bergenin monohydrate], the fold induction at 50 µM was 0.9 in the experiment with E. faecium (setting [3]); 0.9 in experiment [1] (setting [4]); 0.8 in the experiment with K. pneumoniae (setting [5]); 0.9 in experiment [2] (setting [6]); 0.8 in the experiment on P. aeruginosa (setting [7]); 1.1 in the experiment on E. cloacae (setting [8]). Further, the fold induction at 50 µM in the experiment with E. coli (setting [9]) came out at 0.7.

Take `CC[C@H](CC[C@@H](C)[C@H]1CC[C@H]2[C@@H]3CC=C4C[C@@H](O)CC[C@]4(C)[C@H]3CC[C@]12C)C(C)C` [Beta-sistosterol]: the “AK-based Prestwick library screening result, E. faecium (fold increase in extracellular AK activity)” value with E. faecium (planktonic E. faecium, […]) was determined as 0.9. Further, the “AK-based Prestwick library screening result, S. aureus (fold increase in extracellular AK activity)” value in experiment [1] (planktonic S. aureus, […]) was 0.7. The “AK-based Prestwick library screening result, K. pneumoniae (fold increase in extracellular AK activity)” value with K. pneumoniae (planktonic K. pneumoniae, […]) was 0.8. Also, the “AK-based Prestwick library screening result, A. baumannii (fold increase in extracellular AK activity)” value in experiment [2] (planktonic A. baumannii, […]) amounted to 0.8. For the same compound, in the experiment on P. aeruginosa (planktonic P. aeruginosa, […]), the “AK-based Prestwick library screening result, P. aeruginosa (fold increase in extracellular AK activity)” value was 0.8. Also, the “AK-based Prestwick library screening result, E. cloacae (fold increase in extracellular AK activity)” value in the experiment on E. cloacae (planktonic E. cloacae, […]) worked out at 1.1. The “AK-based Prestwick library screening result, E. coli (fold increase in extracellular AK activity)” value in the experiment with E. coli (planktonic E. coli, […]) stood at 0.8.

These data come from US10004701B2, “Methods and compositions for treating infection” (UNIVERSITY OF ROCHESTER, priority 2012, dated 2018).
